Publication PMC8347481, “Germacranolides from Carpesium divaricatum: Some New Data on Cytotoxic and Anti-Inflammatory Activity” (Molecules, 2021)
Read-outs that look alike come from different tables or passages of the source.

How the values were obtained:
[1] = system: A459 cells; parameters: method as in PMID 29751555; conditions: cited from earlier work
[2] = system: Du145; experiment: LDH cell viability assay, prostate cancer cells; format: cell-based; conditions: Homo sapiens, DU-145; for IC50: Du145, 24 h, LDH assay
Procedure: (§1) Normal prostate epithelial cells (PNT2), two prostate cancer cell lines (Du145 and PC3), human keratinocytes (HaCaT), two melanoma cell lines (A375 and HTB140) and two colon cancer cell lines (HT29 and Caco-2) were treated with 3 at a concentration range 1.0–50.0 µg/mL. Viability of the cells was estimated using lactate dehydrogenase (LDH) assay.
(§2) Cytotoxic activity of 3 was tested on human cancer and normal cells, grouped in three panels: prostate, skin and gastrointestinal. The prostate panel comprised prostate cancer cell lines DU145 (ATCC HTB-81) and PC3 (ATCC CRL-1435) and prostate normal epithelial cells PNT2 (ECACC 95012613). Melanoma cell lines A375 (ATCC CRL-1619) and HTB140 (ATCC Hs 294T) together with human keratinocytes HaCaT (obtained as a kind gift of Prof. Marta Michalik, Department of Cell Biology, Jagiellonian University) were included in the skin panel. Two colon cancer cell lines, namely Caco-2 (ATCC HTB-37) and HT29 (ATCC HTB-38), constituted the gastrointestinal panel. Du145 cells were grown in a modified Eagle’s medium with low (1.0 g/L) glucose concentration; HT29, PC3 and PNT-2 cells were grown in Dulbecco’s modified Eagle’s medium (DMEM) and F12 HAM Nutrient Mixture; Caco-2 cells were grown in modified Eagle’s medium with nonessential amino acids (NEAA); and melanoma cells and keratinocytes were maintained in modified Eagle’s medium with high (4.5 g/L) glucose concentration. The culture media contained antibiotics and 10% fetal bovine serum (FBS). All cultures were maintained at 37 °C in a humidified, 5% CO2-containing atmosphere.
(§3) The examined compound (3) was diluted in the culture media from freshly made stock solution in MeOH (10 mg/mL) to the working concentrations (from 0 to 50 μg/mL). Cell viability was determined as described previously. […] Then, the culture medium was replaced with the medium containing different concentrations of the assessed compound (1–50 μg/mL). After 24 h of incubation, the viability of the cells was determined using colorimetric lactate dehydrogenase (LDH) assay in comparison to the controls to which corresponding aliquots of MeOH diluted with culture media were added. Cells grown in the medium without the tested compound were used as control I (negative), and the positive control (control II) was obtained by incubation of the cells in the medium containing 1% Triton X-100. LDH released from the damaged cells into the cell culture medium was quantified by measuring the absorbance at 490 nm using a Synergy II Biotek microplate reader. Cytotoxicities of the examined compounds were calculated as follows: ((absorbance of the tested sample−absorbance of control I)/(absorbance of control II−absorbance of control I)) × 100. Results were means of three independent measurements (± SD). Doxorubicin (Ebewe Pharma G.m.b.H., Unterach, Austria) was used as a reference cytostatic drug.

[3] = system: A375; experiment: LDH cell viability assay, melanoma cells; format: cell-based; conditions: Homo sapiens, A-375; for IC50: A375, 24 h, LDH assay
Procedure: as §1, §2, §3

[4] = system: HTB140; experiment: LDH cell viability assay, melanoma cells; format: cell-based; conditions: Homo sapiens; for IC50: HTB140, 24 h, LDH assay
Procedure: as §1, §2, §3

[5] = system: HT29; experiment: LDH cell viability assay, colon cancer cells; format: cell-based; conditions: Homo sapiens, HT-29; for IC50: HT29, 24 h, LDH assay
Procedure: as §1, §2, §3

[6] = system: Caco-2; experiment: LDH cell viability assay, colon cancer cells; format: cell-based; conditions: Homo sapiens; for IC50: Caco-2, 24 h, LDH assay
Procedure: as §1, §2, §3

[7] = system: HeLa cells; parameters: method as in PMID 29751555; conditions: cell density 2 × 10^4, 96 h treatment; cited from earlier work
[8] = system: HaCaT; experiment: LDH cell viability assay, keratinocytes; format: cell-based, human; conditions: Homo sapiens, 24 h, LDH assay
Procedure: as §1, §2, §3

[9] = LDH cell viability assay, keratinocytes; format: cell-based, human; conditions: human, HaCaT keratinocytes, read-out: Cell Viability (%) ± SD
Procedure: as §1, §2, §3

[10] = system: PNT2; experiment: LDH cell viability assay, normal prostate epithelial cells; format: cell-based, human; conditions: Homo sapiens, PNT2, 24 h, LDH assay
Procedure: as §1, §2, §3

[11] = as above; format: cell-based, human; conditions: human, PNT2 normal prostate epithelial cells, 24 h, read-out: Cell Viability (%) ± SD
Procedure: as §1, §2, §3

[12] = system: HepG2 cells; parameters: method as in PMID 29751555; conditions: HepG2, cell density 2 × 10^4, 96 h treatment; cited from earlier work
[13] = value in parentheses, read-out: IC50 (IC50 µM) (converted)

C=C1C(=O)O[C@H]2[C@H]1[C@@H](O)[C@H](OC(=O)CC(C)C)[C@H](C)CCC(=O)[C@](C)(O)[C@@H]2OC(=O)C(C)C [Compound 3]
Cytotoxicity [1]: resistant | viability at 1 µg/mL ([2]; Du145, 1 µg/mL, 24 h, read-out: Cell Viability (%) ± SD): 68.42 ± 0.52% | viability at 3 µg/mL ([2]; Du145, 3 µg/mL, 24 h, read-out: Cell Viability (%) ± SD): 56.3 ± 0.97% | viability at 5 µg/mL ([2]; Du145, 5 µg/mL, 24 h, read-out: Cell Viability (%) ± SD): 44.8 ± 2.05% | viability at 10 µg/mL ([2]; Du145, 10 µg/mL, 24 h, read-out: Cell Viability (%) ± SD): 37.7 ± 2.16% | viability at 20 µg/mL ([2]; Du145, 20 µg/mL, 24 h, read-out: Cell Viability (%) ± SD): 23.6 ± 1.54% | viability at 30 µg/mL ([2]; Du145, 30 µg/mL, 24 h, read-out: Cell Viability (%) ± SD): 12.5 ± 1.94% | viability at 50 µg/mL ([2]; Du145, 50 µg/mL, 24 h, read-out: Cell Viability (%) ± SD): 0.62 ± 0.58% | IC50 [2, 13]: 10.8 µM | IC50 ([2]; read-out: IC50): 5.08 ± 1.14 µg/mL | viability at 1 µg/mL ([3]; A375, 1 µg/mL, 24 h, read-out: Cell Viability (%) ± SD): 64.2 ± 1.13% | viability at 3 µg/mL ([3]; A375, 3 µg/mL, 24 h, read-out: Cell Viability (%) ± SD): 55.4 ± 1.44% | viability at 5 µg/mL ([3]; A375, 5 µg/mL, 24 h, read-out: Cell Viability (%) ± SD): 43.8 ± 1.69% | viability at 10 µg/mL ([3]; A375, 10 µg/mL, 24 h, read-out: Cell Viability (%) ± SD): 33 ± 2.3% | viability at 20 µg/mL ([3]; A375, 20 µg/mL, 24 h, read-out: Cell Viability (%) ± SD): 7.09 ± 1.78% | viability at 30 µg/mL ([3]; A375, 30 µg/mL, 24 h, read-out: Cell Viability (%) ± SD): 0.82 ± 0.65% | viability at 50 µg/mL ([3]; A375, 50 µg/mL, 24 h, read-out: Cell Viability (%) ± SD): 0% | IC50 [3, 13]: 20.4 µM | IC50 ([3]; read-out: IC50): 9.57 ± 0.87 µg/mL | viability at 1 µg/mL ([4]; HTB140, 1 µg/mL, 24 h, read-out: Cell Viability (%) ± SD): 81.4 ± 1.28% | viability at 3 µg/mL ([4]; HTB140, 3 µg/mL, 24 h, read-out: Cell Viability (%) ± SD): 70.8 ± 2.37% | viability at 5 µg/mL ([4]; HTB140, 5 µg/mL, 24 h, read-out: Cell Viability (%) ± SD): 50.9 ± 1.8% | viability at 10 µg/mL ([4]; HTB140, 10 µg/mL, 24 h, read-out: Cell Viability (%) ± SD): 21.5 ± 2.53% | viability at 20 µg/mL ([4]; HTB140, 20 µg/mL, 24 h, read-out: Cell Viability (%) ± SD): 4.1 ± 1.75% | viability at 30 µg/mL ([4]; HTB140, 30 µg/mL, 24 h, read-out: Cell Viability (%) ± SD): 0.59 ± 0.78% | viability at 50 µg/mL ([4]; HTB140, 50 µg/mL, 24 h, read-out: Cell Viability (%) ± SD): 0% | IC50 [4, 13]: 13.6 µM | IC50 ([4]; read-out: IC50): 6.36 ± 0.38 µg/mL | viability at 1 µg/mL ([5]; HT29, 1 µg/mL, 24 h, read-out: Cell Viability (%) ± SD): 69.3 ± 1.75% | viability at 3 µg/mL ([5]; HT29, 3 µg/mL, 24 h, read-out: Cell Viability (%) ± SD): 58 ± 1.66% | viability at 5 µg/mL ([5]; HT29, 5 µg/mL, 24 h, read-out: Cell Viability (%) ± SD): 49.2 ± 2% | viability at 10 µg/mL ([5]; HT29, 10 µg/mL, 24 h, read-out: Cell Viability (%) ± SD): 38 ± 2.29% | viability at 20 µg/mL ([5]; HT29, 20 µg/mL, 24 h, read-out: Cell Viability (%) ± SD): 24.4 ± 1.1% | viability at 30 µg/mL ([5]; HT29, 30 µg/mL, 24 h, read-out: Cell Viability (%) ± SD): 10.4 ± 1.09% | viability at 50 µg/mL ([5]; HT29, 50 µg/mL, 24 h, read-out: Cell Viability (%) ± SD): 0.79 ± 0.78% | IC50 [5, 13]: 13.3 µM | IC50 ([5]; read-out: IC50): 6.23 ± 0.89 µg/mL | viability at 1 µg/mL ([6]; Caco-2, 1 µg/mL, 24 h, read-out: Cell Viability (%) ± SD): 52.8 ± 1.62% | viability at 3 µg/mL ([6]; Caco-2, 3 µg/mL, 24 h, read-out: Cell Viability (%) ± SD): 38.6 ± 2.35% | viability at 5 µg/mL ([6]; Caco-2, 5 µg/mL, 24 h, read-out: Cell Viability (%) ± SD): 15.1 ± 2.91% | viability at 10 µg/mL ([6]; Caco-2, 10 µg/mL, 24 h, read-out: Cell Viability (%) ± SD): 1.96 ± 2.7% | viability at 20 µg/mL ([6]; Caco-2, 20 µg/mL, 24 h, read-out: Cell Viability (%) ± SD): 0.31 ± 0.43% | viability at 30 µg/mL ([6]; Caco-2, 30 µg/mL, 24 h, read-out: Cell Viability (%) ± SD): 0% | viability at 50 µg/mL ([6]; Caco-2, 50 µg/mL, 24 h, read-out: Cell Viability (%) ± SD): 0% | IC50 [6, 13]: 8.29 µM | IC50 ([6]; read-out: IC50): 3.88 ± 0.1 µg/mL | IC50 [7]: 29.4 µM | IC50 ([8]; read-out: IC50): 7.95 ± 0.15 µg/mL | IC50 [8, 13]: 17 µM | viability at 24 h, 1 µg/mL ([9]; 1 µg/mL): 86.8 ± 1.7% | viability at 24 h, 3 µg/mL ([9]; 3 µg/mL): 74.5 ± 2.29% | viability at 24 h, 5 µg/mL ([9]; 5 µg/mL): 64.4 ± 1.33% | viability at 24 h, 10 µg/mL ([9]; 10 µg/mL): 30.5 ± 1.32% | viability at 24 h, 20 µg/mL ([9]; 20 µg/mL): 0.79 ± 0.72% | viability at 24 h, 30 µg/mL ([9]; 30 µg/mL): 0% | viability at 24 h, 50 µg/mL ([9]; 50 µg/mL): 0% | IC50 [10, 13]: 35 µM | IC50 ([10]; read-out: IC50): 16.4 ± 0.4 µg/mL | viability at 24 h, 1 µg/mL ([11]; PNT2, 1 µg/mL): 87.1 ± 1.79% | viability at 24 h, 3 µg/mL ([11]; PNT2, 3 µg/mL): 77.2 ± 1.32% | viability at 24 h, 5 µg/mL ([11]; PNT2, 5 µg/mL): 69.4 ± 0.97% | viability at 24 h, 10 µg/mL ([11]; PNT2, 10 µg/mL): 52.8 ± 2.31% | viability at 24 h, 20 µg/mL ([11]; PNT2, 20 µg/mL): 32.5 ± 1.84% | viability at 24 h, 30 µg/mL ([11]; PNT2, 30 µg/mL): 21.4 ± 0.45% | viability at 24 h, 50 µg/mL ([11]; PNT2, 50 µg/mL): 3.29 ± 1.27% | IC50 [12]: 17 µM
